Measured values taken from ChEMBL document CHEMBL4190257, “Discovery of phenylsulfonyl acetic acid derivatives with improved efficacy and safety as potent free fatty acid receptor 1 agonists for the treatment of type 2 diabetes” (Eur J Med Chem, 2017).

Tests used:
[1] = molecular target: T1, Free fatty acid receptor 1 (Homo sapiens, UniProt O14842); assay: Agonist activity at human FFA1 receptor expressed in CHO cells assessed as increase in intracellular calcium flux at 10 uM by Fluo 4AM dye-based FLIPR assay relative to TAK-875; assay type: functional, cell-based
T1 sequence (O14842 whole entry): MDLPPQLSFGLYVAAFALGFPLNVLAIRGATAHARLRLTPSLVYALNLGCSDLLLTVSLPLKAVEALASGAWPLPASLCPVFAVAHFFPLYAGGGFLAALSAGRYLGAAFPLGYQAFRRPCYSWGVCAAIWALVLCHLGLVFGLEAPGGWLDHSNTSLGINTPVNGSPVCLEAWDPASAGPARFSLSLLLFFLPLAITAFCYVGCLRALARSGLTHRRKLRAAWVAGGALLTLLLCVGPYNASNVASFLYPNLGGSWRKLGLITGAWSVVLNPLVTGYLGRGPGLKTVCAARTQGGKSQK

[2] = molecular target: T1, Free fatty acid receptor 1; assay: Agonist activity at human FFA1 receptor expressed in CHO cells assessed as increase in intracellular calcium flux by Fluo 4AM dye-based FLIPR assay; assay type: functional, cell-based
[3] = Drug level in Sprague-Dawley rat plasma treated with 2-((4-((2'-chloro-[1,1'-biphenyl]-3-yl)methoxy)phenyl)sulfonyl)acetic acid at 10 mg/kg, po measured up to 24 hrs post dose by LC-PDA-MS/MS analysis; assay type: ADME, organism-based; details: in vivo
[4] = Octanol/phosphate buffer distribution coefficient, log D of the compound at 100 uM at pH 7.4 after 24 hrs by shake flask method; assay type: physicochemical
HepG2 = assay: Apoptotic cytotoxicity in human HepG2 cells assessed as caspase-3/7 activity at 30 uM after 24 hrs by caspase-glo-3/7 assay relative to staurosporine; assay type: cell-based; details: hepg2, 24 h
[5] = Half life in fasted Sprague-Dawley rat at 10 mg/kg, po administered as single dose measured up to 24 hrs post dose by LC-PDA-MS/MS analysis; assay type: ADME, organism-based; details: in vivo
[6] = AUC (0 to 24 hrs) in fasted Sprague-Dawley rat at 10 mg/kg, po administered as single dose measured up to 24 hrs post dose by LC-PDA-MS/MS analysis; assay type: ADME, organism-based; parameters: time < 24 hr, dose 10 mg/kg, route oral; details: in vivo
[7] = Cmax in fasted Sprague-Dawley rat at 10 mg/kg, po administered as single dose measured up to 24 hrs post dose by LC-PDA-MS/MS analysis; assay type: ADME, organism-based; parameters: dose 10 mg/kg, route oral; details: in vivo
[8] = Clearance in fasted Sprague-Dawley rat at 10 mg/kg, po administered as single dose measured up to 24 hrs post dose by LC-PDA-MS/MS analysis; assay type: ADME, organism-based; details: in vivo

Compound	Efficacy [1] [%]	EC50 [2] [µM]	other results
Cc1ccc(-c2c(C)noc2C)cc1COc1ccc(S(=O)(=O)CC(=O)O)cc1	73	0.427	
O=C(CS(=O)(=O)c1ccc(OCc2cccc(-c3ccccc3Cl)c2)cc1)NCCS(=O)(=O)O			Drug metabolism [3]: Metabolite_Detected
Cc1cc(OCC(C)C)cc(C)c1-c1cccc(COc2ccc(S(=O)(=O)CC(=O)O)cc2)c1	96	0.0955	logD at 24 h, 100 µM [4]: 3.94
Cc1cc(OCC2CC2)cc(C)c1-c1cccc(COc2ccc(S(=O)(=O)CC(=O)O)cc2)c1	98	0.0794	Activity (HepG2): 26.3%; logD at 24 h, 100 µM [4]: 3.46
Cc1cccc(C)c1-c1cccc(COc2ccc(SCC(=O)O)cc2)c1	95	0.195	logD at 24 h, 100 µM [4]: 3.82
Cc1cc(OCCCS(C)(=O)=O)cc(C)c1-c1cccc(COc2ccc(S(=O)(=O)CC(=O)O)cc2)c1	83	0.17	
Cc1noc(C)c1-c1cccc(COc2ccc(S(=O)(=O)CC(=O)O)cc2)c1C	77	0.363	
CCOc1cc(C)c(-c2cccc(COc3ccc(S(=O)(=O)CC(=O)O)cc3)c2)c(C)c1	107	0.0631	Activity (HepG2): 6.7%; logD at 24 h, 100 µM [4]: 2.86
O=C(O)CS(=O)(=O)c1cccc(OCc2ccc(-c3ccccc3)cc2)c1		> 1	
Cc1ccc(-c2cccc(COc3ccc(S(=O)(=O)CC(=O)O)cc3)c2)c(Cl)c1	112	0.0363	Activity (HepG2): 17.6%; logD at 24 h, 100 µM [4]: 3.05
O=C(O)CS(=O)(=O)c1ccc(OCc2cccc(-c3ccccc3C(F)(F)F)c2)cc1	108	0.0525	Activity (HepG2): 12.5%; logD at 24 h, 100 µM [4]: 2.95
CCC(C(=O)O)S(=O)(=O)c1ccc(OCc2cccc(-c3c(C)cc(OC)cc3C)c2)cc1 (configuration not stated)		> 1	
CC(C)c1ccccc1-c1cccc(COc2ccc(S(=O)(=O)CC(=O)O)cc2)c1	101	0.0741	logD at 24 h, 100 µM [4]: 3.18
COc1ccccc1-c1cccc(COc2ccc(S(=O)(=O)CC(=O)O)cc2)c1	96	0.195	
COc1cc(C)c(-c2cccc(COc3ccc(S(=O)(=O)CC(=O)O)cc3)c2)c(C)c1	106	0.0575	Activity (HepG2): -2.4%; logD at 24 h, 100 µM [4]: 2.45
Cc1nc(-c2cccc(F)c2)sc1COc1ccc(S(=O)(=O)CC(=O)O)cc1	84	0.275	
COc1cc(C)c(-c2cccc(COc3ccc4c(c3)C(O)CC4CC(=O)O)c2)c(C)c1 (configuration not stated)	83	0.55	
O=C(O)CS(=O)(=O)c1ccc(OCc2cccc(-c3ccccc3)c2)cc1	94	0.288	Activity (HepG2): -1.9%; logD at 24 h, 100 µM [4]: 2.13
Cc1nc(-c2ccc(F)cc2)sc1COc1ccc(S(=O)(=O)CC(=O)O)cc1	92	0.191	
CO/N=C(\COc1ccc(COc2ccc(S(=O)(=O)CC(=O)O)cc2)cc1)c1ccccc1	92	0.178	
Cc1ccc(C)n1-c1cccc(COc2ccc(S(=O)(=O)CC(=O)O)cc2)c1	85	0.129	
Cc1ccccc1-c1ccc(COc2cccc(S(=O)(=O)CC(=O)O)c2)cc1		> 1	
O=C(CS(=O)(=O)c1ccc(OCc2cccc(-c3ccccc3Cl)c2)cc1)O[C@@H]1O[C@H](CO)[C@@H](O)[C@H](O)[C@H]1O			Drug metabolism [3]: Metabolite_Detected
Cc1nc(-c2ccccc2)sc1COc1ccc(S(=O)(=O)CC(=O)O)cc1	91	0.331	

Compound	Efficacy [1] [%]	EC50 [2] [µM]	other results
Cc1noc(C)c1-c1cccc(COc2ccc(S(=O)(=O)CC(=O)O)cc2)c1	82	0.269	
Cc1cc(OCCCS(C)(=O)=O)cc(C)c1-c1cccc(COc2ccc(CCC(=O)O)cc2)c1	116	0.0155	half-life [5]: 1.09 h; Activity (HepG2): 46.8%; AUC(0-t) at 24 h [6]: 1020 ng·h/mL; logD at 24 h, 100 µM [4]: 3.75; Cmax [7]: 517 ng/mL; CL/F [8]: 118 mL/min/kg
Cc1nc(-c2cccc(Cl)c2)sc1COc1ccc(S(=O)(=O)CC(=O)O)cc1	85	0.251	
Cc1noc(C)c1-c1cc(COc2ccc(S(=O)(=O)CC(=O)O)cc2)ccc1Cl	81	0.214	
COc1cc(C)c(-c2cccc(COc3ccc4c(c3)S(=O)(=O)CC4CC(=O)O)c2)c(C)c1 (configuration not stated)		> 1	
Cc1nc(-c2ccccc2F)sc1COc1ccc(S(=O)(=O)CC(=O)O)cc1	75	0.55	
COc1cc(C)c(-c2cccc(COc3ccc4c(c3)C(=O)CC4CC(=O)O)c2)c(C)c1 (configuration not stated)	87	0.234	
O=C(O)CS(=O)(=O)c1ccc(OCc2cccc(Oc3ccccc3)c2)cc1	101	0.0977	
COc1cc(C)c(-c2cccc(COc3ccc(S(=O)(=O)C(C)C(=O)O)cc3)c2)c(C)c1 (configuration not stated)		> 1	
N#Cc1ccccc1-c1cccc(COc2ccc(S(=O)(=O)CC(=O)O)cc2)c1	78	0.457	
CO/N=C1\CC(CC(=O)O)c2ccc(OCc3cccc(-c4c(C)cc(OC)cc4C)c3)cc21 (configuration not stated)		> 1	
Cc1cccc(C)c1-c1cccc(COc2ccc(S(=O)(=O)CC(=O)O)cc2)c1	103	0.0661	Activity (HepG2): -1.5%; logD at 24 h, 100 µM [4]: 2.49
Cc1ccccc1-c1cccc(COc2ccc(S(=O)(=O)CC(=O)O)cc2)c1	113	0.0468	Activity (HepG2): -2.7%; logD at 24 h, 100 µM [4]: 2.35
Cc1cccc(-c2nc(C)c(COc3ccc(S(=O)(=O)CC(=O)O)cc3)s2)c1	82	0.214	
O=C(O)c1cccc(-c2ccccc2Cl)c1			Drug metabolism [3]: Metabolite_Detected
COc1cc(C)c(-c2cccc(COc3ccc(S(=O)(=O)C(C)(C)C(=O)O)cc3)c2)c(C)c1		> 1	
Cc1noc(C)c1-c1ccc(Cl)c(COc2ccc(S(=O)(=O)CC(=O)O)cc2)c1	84	0.234	
O=C(O)CS(=O)(=O)c1ccc(OCc2cccc(-c3ccccc3F)c2)cc1	97	0.257	
COCCOc1cc(C)c(-c2cccc(COc3ccc(S(=O)(=O)CC(=O)O)cc3)c2)c(C)c1	95	0.126	
COc1cc(C)c(-c2cccc(COc3ccc4c(c3)SCC4CC(=O)O)c2)c(C)c1 (configuration not stated)	98	0.123	
CCCOc1cc(C)c(-c2cccc(COc3ccc(S(=O)(=O)CC(=O)O)cc3)c2)c(C)c1	104	0.0692	Activity (HepG2): 29.5%; logD at 24 h, 100 µM [4]: 3.58
CCOc1ccc(-c2cccc(COc3ccc(S(=O)(=O)CC(=O)O)cc3)c2)c(Cl)c1	105	0.0513	Activity (HepG2): 26.9%; logD at 24 h, 100 µM [4]: 3.12
COc1cc(C)c(-c2cccc(COc3ccc(S(=O)(=O)C4(C(=O)O)CC4)cc3)c2)c(C)c1		> 1	
